Values joined by “and” are separate entries in the source; they are usually repeats but may differ in a detail not shown here. Equal entries are not always repeated.
Assays:
OATP1B3 = target: T1, OATP1B3 (Homo sapiens, UniProt Q9NPD5); assay: Uptake transporter inhibition assay, OATP1B3
T1 sequence (Q9NPD5 1-702): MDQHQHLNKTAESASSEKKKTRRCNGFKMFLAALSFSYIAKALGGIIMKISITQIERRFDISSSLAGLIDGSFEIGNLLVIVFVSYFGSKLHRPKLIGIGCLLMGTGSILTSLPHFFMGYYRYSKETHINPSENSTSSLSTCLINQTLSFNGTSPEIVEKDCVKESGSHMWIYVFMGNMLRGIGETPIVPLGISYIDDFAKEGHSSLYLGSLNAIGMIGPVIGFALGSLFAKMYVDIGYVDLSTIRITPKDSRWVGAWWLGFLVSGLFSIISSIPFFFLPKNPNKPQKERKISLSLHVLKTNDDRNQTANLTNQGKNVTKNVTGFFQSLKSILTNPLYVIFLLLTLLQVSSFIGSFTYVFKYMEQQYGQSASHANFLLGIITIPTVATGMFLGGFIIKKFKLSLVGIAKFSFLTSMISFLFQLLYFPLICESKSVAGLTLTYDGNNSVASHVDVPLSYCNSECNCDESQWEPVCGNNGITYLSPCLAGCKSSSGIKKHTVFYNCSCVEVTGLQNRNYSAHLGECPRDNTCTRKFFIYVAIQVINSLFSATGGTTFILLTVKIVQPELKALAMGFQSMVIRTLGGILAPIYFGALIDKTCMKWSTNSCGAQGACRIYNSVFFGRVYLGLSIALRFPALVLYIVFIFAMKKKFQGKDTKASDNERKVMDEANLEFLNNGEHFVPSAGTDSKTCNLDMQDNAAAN
Description: For the uptake transporter inhibition assay, cells were washed twice with 100 μL of the appropriate buffer (HK, pH 7.4) for OATP1B1, followed by HBSS (pH 7.4) for (NTCP, OAT1, OAT2v1, OATP1A2, and OATP1B3). Uptake experiments were carried out at 37 ± 1°C in 50 μL of the respective buffer containing the probe substrate and the compound or solvent. […] After the experiment, cells were washed twice with 100 μL of cold appropriate buffer and lysed with 50 μL of 0.1 M NaOH. Radiolabeled probe substrate transport was determined by measuring an aliquot (35 μL) from each well for liquid scintillation counting.

[1] = Stability in microsomes, monkey; format: in vitro ADME; conditions: for average DEG [%]: monkey microsomes, with cofactors
Description: (§1) The final incubation volume was 500 μL. Two control compounds (verapamil and donepezil) were included for each microsomal species, along with the appropriate vehicle control. The reactions were terminated by transferring 50 μL of incubate to 100 μL methanol containing an internal standard (metoprolol) at appropriate time points (0, 10, 20, 40, 60, and 120 min for the test compound and 0, 5, 10, 20, 40, and 60 min for the control compounds). The termination plates were centrifuged at 4000 x g at 4°C for 30 min to precipitate the protein. The supernatants were then collected for analysis, and LC-MS/MS was used for detection purposes. The system consisted of an Acquity™ Binary Solvent Manager, Acquity™ 4-position heated column manager, 2777 Ultra High Pressure Autosampler, and a Xevo-TQ MS triple quadrupole mass spectrometer (Waters Ltd., Herts, UK). This process was carried out twice.

MRP3 = MRP3 (Homo sapiens, UniProt O15438); assay: Vesicular transport inhibition assay, MRP3; conditions: for Accumulation (counts per minute; CPM) with AMP / Accumulation (counts per minute; CPM) with ATP: MRP3;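 further: membrane vesicles with radiolabelled probe substrate and 2 mM glutathione, 4 mM ATP versus AMP background control, vesicle-trapped substrate quantified by liquid scintillation counting after filtration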;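 on Accumulation (counts per minute; CPM) with AMP: ATP 4 mM vs AMP background separates transporter uptake from diffusion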;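 on Accumulation (counts per minute; CPM) with ATP: ATP 4 mM vs AMP background separates transporter uptake from diffusion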
Description: In the vesicular transport inhibition assay (for BSEP, MRP) compounds were incubated with membrane vesicle preparations and the probe substrate. Incubations were carried out in the presence of 4 mM ATP or AMP to distinguish between transporter-mediated uptake and passive diffusion into the vesicles. For MRP2 and MRP3, reactions were carried out in the presence of 2 mM glutathione. Compounds were added to the reaction mixture in 0.75 μL of solvent (1% of the final incubation volume). […] Reactions were initiated by the addition of 25 μL of 12 mM MgATP (or 12 mM AMP in assay buffer as a background control) and preincubated separately. Reactions were quenched by the addition of 200 μL of ice-cold washing buffer and immediate filtration via glass fiber filters mounted on a 96-well plate (filter plate). The filters were washed (5 × 200 μL of ice-cold washing buffer), dried, and the amount of substrate inside the filtered vesicles was determined by liquid scintillation counting.

[2] = Pharmacokinetics in mice, serum and liver concentrations; conditions: for liver conc / serum conc: mouse, 3 mg/kg p.o., individual animals
Description: The mice were separated into four groups of 32 mice per group. […] At time point t = 0, animals received a single dose of the compounds orally. […] Four hours after drug administration, the animals received standard chow. […] After solubilization in extraction buffer, the solutions were shaken for 1 min and then centrifuged for 4 min (4000 x g).

[3] = Stability in microsomes, mini pig; format: in vitro ADME; conditions: for average DEG [%]: minipig microsomes, with cofactors
Description: as §1

[4] = Stability in microsomes, dog; format: in vitro ADME; conditions: for average DEG [%]: dog microsomes, with cofactors
Description: as §1

BSEP = BSEP (Homo sapiens, UniProt O95342); assay: Vesicular transport inhibition assay, BSEP
in vivo = conditions: both, Wistar Han, rat, 600 mg/kg, 14 days
[5] = Stability in microsomes, rat; format: in vitro ADME; conditions: for average DEG [%]: rat microsomes, with cofactors
Description: as §1

[6] = Monkey (Cynomolgus) microsomes, mean n = 2
[7] = Mini pig microsomes, mean n = 2
[8] = Dog (Beagle) microsomes, mean n = 2
[9] = Rat (Sprague Dawley) microsomes, mean n = 2

BSEP, sequence (O95342 whole entry): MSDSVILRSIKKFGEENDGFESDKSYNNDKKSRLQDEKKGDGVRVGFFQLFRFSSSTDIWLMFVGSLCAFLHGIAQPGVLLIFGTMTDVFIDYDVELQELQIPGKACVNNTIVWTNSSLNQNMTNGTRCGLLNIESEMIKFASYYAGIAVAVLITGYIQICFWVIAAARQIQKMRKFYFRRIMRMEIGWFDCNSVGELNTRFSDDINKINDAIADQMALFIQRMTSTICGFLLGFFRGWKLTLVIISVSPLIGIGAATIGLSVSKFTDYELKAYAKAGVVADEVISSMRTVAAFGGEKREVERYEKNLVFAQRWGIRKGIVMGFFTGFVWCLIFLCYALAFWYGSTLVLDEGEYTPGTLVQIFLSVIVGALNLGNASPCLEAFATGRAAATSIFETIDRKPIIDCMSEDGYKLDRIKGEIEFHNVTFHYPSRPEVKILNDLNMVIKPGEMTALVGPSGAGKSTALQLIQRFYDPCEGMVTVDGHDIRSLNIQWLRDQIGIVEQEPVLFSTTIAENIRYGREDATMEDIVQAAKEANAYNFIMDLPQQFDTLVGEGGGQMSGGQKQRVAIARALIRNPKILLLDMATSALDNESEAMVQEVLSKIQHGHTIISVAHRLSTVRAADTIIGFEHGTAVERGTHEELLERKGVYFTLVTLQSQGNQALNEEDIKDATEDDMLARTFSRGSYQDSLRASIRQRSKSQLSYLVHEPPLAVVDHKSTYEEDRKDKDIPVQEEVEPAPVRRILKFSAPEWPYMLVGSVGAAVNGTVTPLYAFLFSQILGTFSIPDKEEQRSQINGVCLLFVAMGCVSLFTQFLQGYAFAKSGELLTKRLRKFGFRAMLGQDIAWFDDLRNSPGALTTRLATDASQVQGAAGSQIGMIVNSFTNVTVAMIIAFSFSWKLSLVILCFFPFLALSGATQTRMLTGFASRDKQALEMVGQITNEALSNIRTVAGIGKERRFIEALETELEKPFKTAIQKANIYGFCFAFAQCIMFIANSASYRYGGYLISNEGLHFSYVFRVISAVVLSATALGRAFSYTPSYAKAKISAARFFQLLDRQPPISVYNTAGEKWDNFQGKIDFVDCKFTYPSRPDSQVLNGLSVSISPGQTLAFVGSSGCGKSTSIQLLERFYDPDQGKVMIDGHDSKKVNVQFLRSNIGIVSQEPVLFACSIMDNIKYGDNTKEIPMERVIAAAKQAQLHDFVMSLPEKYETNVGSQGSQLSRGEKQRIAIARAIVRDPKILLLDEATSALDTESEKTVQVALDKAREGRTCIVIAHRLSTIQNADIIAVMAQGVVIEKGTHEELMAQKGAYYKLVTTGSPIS
MRP3, sequence (O15438 whole entry, the tested form may be a part): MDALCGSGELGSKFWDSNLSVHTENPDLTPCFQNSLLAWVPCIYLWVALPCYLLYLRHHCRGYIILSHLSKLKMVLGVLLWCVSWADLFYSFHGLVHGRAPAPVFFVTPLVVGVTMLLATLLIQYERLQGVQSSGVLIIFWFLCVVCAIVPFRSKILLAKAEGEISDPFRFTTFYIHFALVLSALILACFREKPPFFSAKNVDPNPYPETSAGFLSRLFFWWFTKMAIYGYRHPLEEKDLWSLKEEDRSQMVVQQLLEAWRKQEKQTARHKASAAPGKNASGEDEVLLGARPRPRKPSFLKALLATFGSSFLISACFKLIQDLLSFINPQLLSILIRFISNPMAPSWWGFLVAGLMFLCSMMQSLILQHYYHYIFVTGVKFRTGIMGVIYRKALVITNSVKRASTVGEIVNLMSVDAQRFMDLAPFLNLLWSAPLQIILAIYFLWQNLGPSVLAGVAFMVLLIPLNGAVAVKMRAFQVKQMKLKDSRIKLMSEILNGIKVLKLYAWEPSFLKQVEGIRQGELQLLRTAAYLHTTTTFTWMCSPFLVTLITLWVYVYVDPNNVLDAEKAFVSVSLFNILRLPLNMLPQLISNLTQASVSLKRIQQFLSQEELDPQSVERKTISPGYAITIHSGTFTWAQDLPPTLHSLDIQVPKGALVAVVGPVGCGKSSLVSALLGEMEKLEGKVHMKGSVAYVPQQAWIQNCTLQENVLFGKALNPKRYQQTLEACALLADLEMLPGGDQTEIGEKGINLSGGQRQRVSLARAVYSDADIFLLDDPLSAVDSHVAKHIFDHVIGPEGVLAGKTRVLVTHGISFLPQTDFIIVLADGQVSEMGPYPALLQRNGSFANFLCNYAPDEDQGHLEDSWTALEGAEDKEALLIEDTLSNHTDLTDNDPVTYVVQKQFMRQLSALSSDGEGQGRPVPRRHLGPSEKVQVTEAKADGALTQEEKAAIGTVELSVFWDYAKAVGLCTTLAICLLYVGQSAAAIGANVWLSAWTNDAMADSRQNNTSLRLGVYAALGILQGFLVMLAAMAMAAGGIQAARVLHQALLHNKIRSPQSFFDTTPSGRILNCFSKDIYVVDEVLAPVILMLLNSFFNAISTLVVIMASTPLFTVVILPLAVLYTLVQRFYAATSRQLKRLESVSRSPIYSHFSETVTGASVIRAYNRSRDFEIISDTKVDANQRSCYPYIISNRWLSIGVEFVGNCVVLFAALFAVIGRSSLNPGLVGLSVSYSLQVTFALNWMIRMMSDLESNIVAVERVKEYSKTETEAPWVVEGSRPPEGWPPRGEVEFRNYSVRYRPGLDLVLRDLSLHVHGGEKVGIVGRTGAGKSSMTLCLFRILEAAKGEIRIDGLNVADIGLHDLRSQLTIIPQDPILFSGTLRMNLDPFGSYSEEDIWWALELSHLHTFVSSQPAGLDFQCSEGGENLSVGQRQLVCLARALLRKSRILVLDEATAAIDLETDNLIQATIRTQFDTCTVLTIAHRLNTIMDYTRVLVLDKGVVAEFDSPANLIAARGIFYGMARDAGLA

With `Cc1cc(OCCCS(C)(=O)=O)cc(C)c1-c1cccc(COc2ccc3c(c2)OC[C@H]3CC(=O)O)c1` [TAK-875, fasiglifam, reference compound] the IC50 (OATP1B3) was 3.44 µM, the half-life at 3 μM [1, 6] was 0.5 h and the microsomal CLint at 3 μM [1, 6] was 39.2 µL/min/mg. The “average DEG [%]” value ([1]; 0 min) was 100.0%, the “average DEG [%]” value ([1]; 20 min) was 61.2% and the “average DEG [%]” value ([1]; 40 min) was 37.2%. The “average DEG [%]” value ([1]; 60 min) was 32.0%, the IC50 (MRP3) was 31.8 µM and the “Accumulation (counts per minute; CPM) with AMP” value (MRP3; conc 0.07 µM) was 151 CPM and 146 CPM. The “Accumulation (counts per minute; CPM) with ATP” value (MRP3; conc 0.07 µM) was 3266 CPM and 3317 CPM, the “Accumulation (counts per minute; CPM) with AMP” value (MRP3; conc 0.21 µM) was 149 CPM and 132 CPM and the “Accumulation (counts per minute; CPM) with ATP” value (MRP3; conc 0.21 µM) was 3233 CPM and 3776 CPM. The “Accumulation (counts per minute; CPM) with AMP” value (MRP3; conc 0.62 µM) was 197 CPM and 169 CPM, the “Accumulation (counts per minute; CPM) with ATP” value (MRP3; conc 0.62 µM) was 3398 CPM and 3538 CPM and the “Accumulation (counts per minute; CPM) with AMP” value (MRP3; conc 16.67 µM) was 238 CPM and 245 CPM. For the same molecule, the “Accumulation (counts per minute; CPM) with ATP” value (MRP3; conc 16.67 µM) was 2701 CPM and 2568 CPM, the “Accumulation (counts per minute; CPM) with AMP” value (MRP3; conc 50.00 µM) was 232 CPM and 210 CPM and the “Accumulation (counts per minute; CPM) with ATP” value (MRP3; conc 50.00 µM) was 1204 CPM and 1302 CPM. For the same molecule, the “distribution between liver and serum” value ([2]; mice, single oral dose 3 mg/kg, 15 min to 24 h) was “tended to penetrate the liver more than serum”, the liver conc ([2]; 0.5 h, 3 mg/kg) was 12066 and 9386 and 11708 and 12618 and the serum conc ([2]; 0.5 h, 3 mg/kg) was 993.3 and 360.8 and 908.6 and 651.9. For the same molecule, the liver conc ([2]; 1 h, 3 mg/kg) was 10596 and 9326 and 7020 and 7420, the serum conc ([2]; 1 h, 3 mg/kg) was 1072.6 and 672.7 and 566 and 819 and the liver conc ([2]; 2 h, 3 mg/kg) was 6580 and 5322 and 5300 and 4227.4. The liver conc ([2]; 4 h, 3 mg/kg) was 3742.6 and 2509.2 and 2176.6 and 3530.4, the liver conc ([2]; 7 h, 3 mg/kg) was 1827.82 and 413.84 and 1236.2 and 1172.8 and the serum conc ([2]; 7 h, 3 mg/kg) was 0 and 11.2 and 32.3 and 10. The liver conc ([2]; 12 h, 3 mg/kg) was 594.8 and 321.278 and 55.624 and 442.92, the serum conc ([2]; 12 h, 3 mg/kg) was 12 and 0 (2×) and 18.6 and the serum conc ([2]; 24 h) was 0. The liver conc ([2]; 24 h, 3 mg/kg) was 449.28 and 67.18 and 37.77 and 209.86, the half-life at 3 μM [3, 7] was 0.25 h and the microsomal CLint at 3 μM [3, 7] was 91.1 µL/min/mg. For the same molecule, the “average DEG [%]” value ([3]; 0 min) was 100.0%, the “average DEG [%]” value ([3]; 20 min) was 29.4% and the “average DEG [%]” value ([3]; 40 min) was 13.1%. For the same molecule, the “average DEG [%]” value ([3]; 60 min) was 5.83%, the half-life at 3 μM [4, 8] was 1.87 h and the microsomal CLint at 3 μM [4, 8] was 12.4 µL/min/mg. The “average DEG [%]” value ([4]; 0 min) was 100.0%, the “average DEG [%]” value ([4]; 20 min) was 82.2% and the “average DEG [%]” value ([4]; 40 min) was 77.1%. The “average DEG [%]” value ([4]; 60 min) was 67.7%, the “Accumulation (counts per minute; CPM) HEK293-BSEP” value (BSEP; conc 0.41 µM) was 11727 CPM and 12245 CPM and 11981 CPM and the “Accumulation (counts per minute; CPM) HEK293-MOCK” value (BSEP; conc 0.41 µM) was 463 CPM and 375 CPM and 363 CPM. The “Accumulation (counts per minute; CPM) HEK293-BSEP” value (BSEP; conc 1.23 µM) was 11757 CPM and 12666 CPM and 12491 CPM, the “Accumulation (counts per minute; CPM) HEK293-MOCK” value (BSEP; conc 1.23 µM) was 465 CPM and 378 CPM and 379 CPM and the “Accumulation (counts per minute; CPM) HEK293-BSEP” value (BSEP; conc 3.70 µM) was 11540 CPM and 12190 CPM and 12485 CPM. The “Accumulation (counts per minute; CPM) HEK293-MOCK” value (BSEP; conc 3.70 µM) was 406 CPM and 443 CPM and 391 CPM, the “Accumulation (counts per minute; CPM) HEK293-BSEP” value (BSEP; conc 11.11 µM) was 11930 CPM and 12790 CPM and 12439 CPM and the “Accumulation (counts per minute; CPM) HEK293-MOCK” value (BSEP; conc 11.11 µM) was 450 CPM and 398 CPM and 437 CPM. For the same molecule, the “Accumulation (counts per minute; CPM) HEK293-BSEP” value (BSEP; conc 33.33 µM) was 10294 CPM and 11069 CPM and 10674 CPM, the “Accumulation (counts per minute; CPM) HEK293-MOCK” value (BSEP; conc 33.33 µM) was 418 CPM and 356 CPM and 425 CPM and the “Accumulation (counts per minute; CPM) HEK293-BSEP” value (BSEP; conc 100 µM) was 6186 CPM and 6483 CPM and 6458 CPM. The “Accumulation (counts per minute; CPM) HEK293-MOCK” value (BSEP; conc 100 µM) was 375 CPM and 361 CPM and 372 CPM, the “exposure exceeding the CPL207280 exposure” value (in vivo) was 200% and the half-life at 3 μM [5, 9] was 1.98 h. For the same molecule, the microsomal CLint at 3 μM [5, 9] was 11.6 µL/min/mg, the “average DEG [%]” value ([5]; 0 min) was 100.0% and the “average DEG [%]” value ([5]; 20 min) was 81.3%. The “average DEG [%]” value ([5]; 40 min) was 79.5% and the “average DEG [%]” value ([5]; 60 min) was 68.4%.

From paper PMC8459971, “Evaluation of the hepatotoxicity of the novel GPR40 (FFAR1) agonist CPL207280 in the rat and monkey” (PLoS ONE, 2021)
